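Results reflect a 48-hour exposure of cells in 96-well plates to compound at five concentrations. Abbreviation: GI50, concentration required for 50% inhibition of growth.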 The source made the active and inactive calls. Rule as the data show it: active = GI50 up to about 1.1 µM and inactive = higher.
Tests used:
Assay in all cases: DTP human tumour cell line panel, 48 h
CCRF-CEM = test system: CCRF-CEM
COLO 205 = test system: COLO 205
EKVX = test system: EKVX
HCT-116 = test system: HCT-116
HT-29 = test system: HT-29
K562 = test system: K562
KM12 = test system: KM12
MOLT-4 = test system: MOLT-4
Malme-3M = test system: Malme-3M
NCI-H460 = test system: NCI-H460
OVCAR-5 = test system: OVCAR-5
OVCAR-8 = test system: OVCAR-8
RPMI-8226 = test system: RPMI-8226
RXF 393 = test system: RXF 393
SK-MEL-2 = test system: SK-MEL-2
SK-OV-3 = test system: SK-OV-3
SN12C = test system: SN12C
SW-620 = test system: SW-620
UACC-257 = test system: UACC-257
A549 = test system: A549

SMILES | GI50 (CCRF-CEM) | GI50 (COLO 205) | GI50 (EKVX) | GI50 (HCT-116) | GI50 (HT-29) | GI50 (K562) | GI50 (KM12) | GI50 (MOLT-4) | GI50 (Malme-3M) | GI50 (NCI-H460) | GI50 (OVCAR-5) | GI50 (OVCAR-8) | GI50 (RPMI-8226) | GI50 (RXF 393) | GI50 (SK-MEL-2) | GI50 (SK-OV-3) | GI50 (SN12C) | GI50 (SW-620) | GI50 (UACC-257) | GI50 (A549)
COc1cc2c(cc1OC)C(C1(O)CCCCC1)NCC2 (stereo not drawn) | > 100 µM (inactive) | > 100 µM (inactive) | > 100 µM (inactive) | > 100 µM (inactive) | > 100 µM (inactive) | > 100 µM (inactive) | > 100 µM (inactive) | > 100 µM (inactive) | > 100 µM (inactive) | > 100 µM (inactive) | > 100 µM (inactive) | > 100 µM (inactive) | > 100 µM (inactive) | > 100 µM (inactive) | > 100 µM (inactive) | > 100 µM (inactive) | > 100 µM (inactive) | > 100 µM (inactive) | > 100 µM (inactive) | 
N#CCCOCN(CO)c1nc(N(CO)COCCC#N)nc(N(CO)COCCC#N)n1 | 23.6 µM (inactive) | 18.4 µM (inactive) | 31.2 µM (inactive) | 25.7 µM (inactive) | 29.1 µM (inactive) | 25 µM (inactive) | 33 µM (inactive) | 21.9 µM (inactive) | 24.9 µM (inactive) | 29.7 µM (inactive) | 35.2 µM (inactive) | 15.8 µM (inactive) | 22.5 µM (inactive) | 20.9 µM (inactive) | 19 µM (inactive) | > 100 µM (inactive) | 20.4 µM (inactive) | 16.1 µM (inactive) | 28 µM (inactive) | 26.1 µM (inactive)
C=C(c1ccccc1)c1cc2c(=O)[nH]ccc2n1C | 31.3 µM (inactive) | 15.9 µM (inactive) | 39.4 µM (inactive) |  |  | 13.8 µM (inactive) | 34.4 µM (inactive) | 27.2 µM (inactive) | 30.1 µM (inactive) | 30.1 µM (inactive) | 44.2 µM (inactive) | 34 µM (inactive) | 24.7 µM (inactive) | 19.3 µM (inactive) | 21.5 µM (inactive) | 26 µM (inactive) | 34.2 µM (inactive) | 28.5 µM (inactive) | 37.1 µM (inactive) | 31.7 µM (inactive)
COCCOCOc1ccc(OCc2ccccc2)cc1 | 36.6 µM (inactive) | > 100 µM (inactive) | > 55.7 µM (inactive) | > 100 µM (inactive) | > 100 µM (inactive) | 64.9 µM (inactive) | > 100 µM (inactive) | 34 µM (inactive) | > 100 µM (inactive) | > 100 µM (inactive) | > 100 µM (inactive) | > 100 µM (inactive) | > 49.5 µM (inactive) | > 100 µM (inactive) | > 82.6 µM (inactive) | > 100 µM (inactive) | > 100 µM (inactive) | > 100 µM (inactive) | > 69.7 µM (inactive) | > 100 µM (inactive)
COc1cc(Cc2ccc3c(c2C#N)N(C)c2ccccc2S3)cc(OC)c1OC | 39.3 µM (inactive) | 36.9 µM (inactive) | 40.8 µM (inactive) | 13.9 µM (inactive) | 53.7 µM (inactive) | 4.39 µM (inactive) | > 100 µM (inactive) | 13.7 µM (inactive) | 34.3 µM (inactive) | 52.2 µM (inactive) | > 100 µM (inactive) | 19.8 µM (inactive) | 8.39 µM (inactive) | 15.3 µM (inactive) | > 100 µM (inactive) | > 100 µM (inactive) | 22.3 µM (inactive) | > 100 µM (inactive) | 12.1 µM (inactive) | 9.4 µM (inactive)
COc1cc2c(cc1Oc1ccc(OC)c3c1CC1c4c(cc(OC)c(OC)c4-3)CCN1C)CC1c3c(cc(OC)c(OC)c3-2)CCN1C (stereo not drawn) | 2.45 µM (inactive) | 1.48 µM (inactive) | 3.18 µM (inactive) | 1.77 µM (inactive) | 0.35 µM (active) | 1.39 µM (inactive) | 2.35 µM (inactive) | 1.25 µM (inactive) | 1.85 µM (inactive) | 1.7 µM (inactive) | 6.05 µM (inactive) | 5.3 µM (inactive) | 0.221 µM (active) | 1.52 µM (inactive) | 1.74 µM (inactive) | 17.8 µM (inactive) | 6.59 µM (inactive) | 1.95 µM (inactive) | 1.65 µM (inactive) | 11.9 µM (inactive)
CS(=O)(=O)C(C#N)c1nc2ccccc2nc1Cl (stereo not drawn) | > 94 µM (inactive) | > 100 µM (inactive) | > 100 µM (inactive) | > 100 µM (inactive) | > 100 µM (inactive) | > 100 µM (inactive) | > 34.4 µM (inactive) | > 100 µM (inactive) | > 100 µM (inactive) | > 30.5 µM (inactive) | > 39.9 µM (inactive) | > 19.5 µM (inactive) | > 100 µM (inactive) | > 100 µM (inactive) | > 22.4 µM (inactive) | > 100 µM (inactive) | > 100 µM (inactive) | > 100 µM (inactive) | > 73.3 µM (inactive) | > 100 µM (inactive)
CC(=O)ON1C(=O)c2cccc3cccc(c23)C1=O | 9.66 µM (inactive) | 26.8 µM (inactive) | 28.1 µM (inactive) | 6.93 µM (inactive) | 27.2 µM (inactive) | 20.1 µM (inactive) | 14.6 µM (inactive) | 15.6 µM (inactive) | 20 µM (inactive) | 7.93 µM (inactive) | 35.1 µM (inactive) | 27.1 µM (inactive) | 12.7 µM (inactive) | 7.23 µM (inactive) | 18.3 µM (inactive) | 34.4 µM (inactive) |  | 5.62 µM (inactive) | 23.8 µM (inactive) | 23.2 µM (inactive)
COc1ccc(C2ON(c3ccccn3)CC=C2C)cc1 (stereo not drawn) | > 100 µM (inactive) | > 100 µM (inactive) | > 100 µM (inactive) |  | > 100 µM (inactive) | > 100 µM (inactive) | > 100 µM (inactive) | 96.4 µM (inactive) | > 100 µM (inactive) | > 100 µM (inactive) | 36.5 µM (inactive) | > 100 µM (inactive) | 60.1 µM (inactive) | > 100 µM (inactive) | > 100 µM (inactive) | > 100 µM (inactive) | > 100 µM (inactive) | > 100 µM (inactive) | > 100 µM (inactive) | > 100 µM (inactive)
Cc1ccccc1-c1nc2c(C(=O)NCCN(C)C)cccc2[nH]1 | 27 µM (inactive) | 18.5 µM (inactive) | > 100 µM (inactive) | 29.6 µM (inactive) | 31.8 µM (inactive) | 20.9 µM (inactive) | 52.8 µM (inactive) | 27 µM (inactive) | 30.5 µM (inactive) | 30.2 µM (inactive) | 40.2 µM (inactive) | 42.8 µM (inactive) | 27.7 µM (inactive) | 78.9 µM (inactive) | > 85.3 µM (inactive) | 46.5 µM (inactive) | 40.4 µM (inactive) | 26.5 µM (inactive) | 39.8 µM (inactive) | 39.4 µM (inactive)
Cc1nn(-c2ccccc2)c(-c2ccccc2[N+](=O)[O-])c1CC#N | > 100 µM (inactive) | > 100 µM (inactive) | > 100 µM (inactive) |  |  | 59.2 µM (inactive) | > 100 µM (inactive) | 67.3 µM (inactive) | 29.4 µM (inactive) | > 100 µM (inactive) | > 100 µM (inactive) | > 100 µM (inactive) | 63.2 µM (inactive) | 45 µM (inactive) | > 100 µM (inactive) | > 100 µM (inactive) | > 100 µM (inactive) | > 10 µM (inactive) | > 100 µM (inactive) | > 100 µM (inactive)
O=C1OC(c2ccc(O)c(F)c2)(c2ccc(O)c(F)c2)c2cccc3cccc1c23 | > 25 µM (inactive) | 1.26 µM (inactive) | 5.12 µM (inactive) | > 25 µM (inactive) | > 25 µM (inactive) | 14.8 µM (inactive) | > 25 µM (inactive) | 5.35 µM (inactive) | > 25 µM (inactive) | > 25 µM (inactive) | > 25 µM (inactive) | > 25 µM (inactive) | 17.2 µM (inactive) | > 25 µM (inactive) | > 25 µM (inactive) | > 25 µM (inactive) | 1.34 µM (inactive) | > 25 µM (inactive) | > 25 µM (inactive) | > 25 µM (inactive)
